ChEMBL document CHEMBL3091293, “The synthesis and biodistribution of [(11)C]metformin as a PET probe to study hepatobiliary transport mediated by the multi-drug and toxin extrusion transporter 1 (MATE1) in vivo” (Bioorg Med Chem, 2013)

Legend:
Type in all cases: ADME, organism-based
Liver [1] = experiment: Drug uptake in liver of ddY mouse at 127 +/- 35 MBq/kg, iv after 2 mins by microPET image analysis; conditions: in vivo
Mus musculus [2] = experiment: Biodistribution in remaining body parts of ddY mouse at 5.6 +/- 2.1 MBq, iv measured per gram of tissue at 90 mins by gamma-ray counting analysis; conditions: in vivo, 1.5 h
Mus musculus [3] = experiment: Biodistribution in remaining body parts of ddY mouse at 14.6 +/- 2.1 MBq, iv measured per gram of tissue at 27.5 mins by PET image analysis; conditions: in vivo
Liver [4] = experiment: Biodistribution in liver of ddY mouse at 14.6 +/- 2.1 MBq, iv measured per gram of tissue at 27.5 mins by PET image analysis; conditions: in vivo
Mus musculus [5] = experiment: Biodistribution in urinary bladder of ddY mouse at 14.6 +/- 2.1 MBq, iv measured per gram of tissue at 14 mins by PET image analysis; conditions: in vivo
Kidney = experiment: Biodistribution in kidney of ddY mouse at 14.6 +/- 2.1 MBq, iv measured per gram of tissue at 14 mins by PET image analysis; conditions: in vivo
Mus musculus [6] = experiment: Biodistribution in small intestine wall of ddY mouse at 5.6 +/- 2.1 MBq, iv measured per gram of tissue at 90 mins by gamma-ray counting analysis; conditions: in vivo, 1.5 h
Mus musculus [7] = experiment: Biodistribution in heart wall of ddY mouse at 5.6 +/- 2.1 MBq, iv measured per gram of tissue at 90 mins by gamma-ray counting analysis; conditions: in vivo, 1.5 h
Mus musculus [8] = experiment: Biodistribution in large intestine wall of ddY mouse at 5.6 +/- 2.1 MBq, iv measured per gram of tissue at 60 mins by gamma-ray counting analysis; conditions: in vivo, 1 h
Mus musculus [9] = experiment: Biodistribution in small intestine wall of ddY mouse at 5.6 +/- 2.1 MBq, iv measured per gram of tissue at 60 mins by gamma-ray counting analysis; conditions: in vivo, 1 h
Mus musculus [10] = experiment: Biodistribution in heart wall of ddY mouse at 5.6 +/- 2.1 MBq, iv measured per gram of tissue at 60 mins by gamma-ray counting analysis; conditions: in vivo, 1 h
Spleen = experiment: Biodistribution in spleen of ddY mouse at 5.6 +/- 2.1 MBq, iv measured per gram of tissue at 60 mins by gamma-ray counting analysis; conditions: in vivo, 1 h
Mus musculus [11] = experiment: Biodistribution in urinary bladder/urine of ddY mouse at 5.6 +/- 2.1 MBq, iv measured per gram of tissue at 45 mins by gamma-ray counting analysis; conditions: in vivo, 0.75 h
Pancreas = experiment: Biodistribution in pancreas of ddY mouse at 5.6 +/- 2.1 MBq, iv measured per gram of tissue at 45 mins by gamma-ray counting analysis; conditions: in vivo, 0.75 h
Mus musculus [12] = experiment: Biodistribution in heart wall of ddY mouse at 5.6 +/- 2.1 MBq, iv measured per gram of tissue at 45 mins by gamma-ray counting analysis; conditions: in vivo, 0.75 h
Thyroid gland = experiment: Biodistribution in thyroid of ddY mouse at 5.6 +/- 2.1 MBq, iv measured per gram of tissue at 35 mins by gamma-ray counting analysis; conditions: in vivo
Mus musculus [13] = experiment: Biodistribution in large intestine wall of ddY mouse at 5.6 +/- 2.1 MBq, iv measured per gram of tissue at 30 mins by gamma-ray counting analysis; conditions: in vivo, 0.5 h
Mus musculus [14] = experiment: Biodistribution in large intestine wall of ddY mouse at 5.6 +/- 2.1 MBq, iv measured per gram of tissue at 15 mins by gamma-ray counting analysis; conditions: in vivo, 0.25 h

CN([11CH3])C(=N)NC(=N)N
Drug uptake (Liver [1]): Not Active | Drug uptake (Mus musculus [2]): 36.827 %ID | Drug uptake (Mus musculus [3]): 28.532 %ID | Drug uptake (Liver [4]): 1.033 %ID | Drug uptake (Mus musculus [5]): 56.419 %ID | Drug uptake (Kidney): 4.906 %ID | Drug uptake (Mus musculus [6]): 1.604 %ID | Drug uptake (Mus musculus [7]): 0.041 %ID | Drug uptake (Mus musculus [8]): 0.395 %ID | Drug uptake (Mus musculus [9]): 2.543 %ID | Drug uptake (Mus musculus [10]): 0.038 %ID | Drug uptake (Spleen): 0.139 %ID | Drug uptake (Mus musculus [11]): 78.906 %ID | Drug uptake (Pancreas): 0.117 %ID | Drug uptake (Mus musculus [12]): 0.029 %ID | Drug uptake (Thyroid gland): 0.003 %ID | Drug uptake (Mus musculus [13]): 0.352 %ID | Drug uptake (Mus musculus [14]): 0.659 %ID
